Data set [1] relates to Canidae. The following applies: for NOAEL: oral.
In data set [2] the test system is Bovidae. The following applies: for LEL: no effects.
In data set [3] the test system is Gallus gallus.
In data set [4] the test system is Sus scrofa. The conditions noted are these: short-term, oral, diet, Not specified; for LEL: duration: 28 days, no effects.
Data set [5] deals with Oncorhynchus mykiss. The following applies: acute; duration: 96 hours; mortality.
The subject of data set [6] is Colinus virginianus. The conditions noted are these: acute; oral; mortality.
The test system of data set [7] is Rattus norvegicus. The following applies: for LD50: mortality.
The test system of data set [8] is Mus musculus. The conditions noted are these: acute; oral; gavage; M; ICR; clinical signs.
Data set [9] relates to Oryctolagus sp. The conditions noted are these: for NOAEL: reproduction developmental.
In data set [10] the test system is Anas platyrhynchos. The conditions noted are these: oral.
Data set [11] concerns Pontoscolex corethrurus. The following applies: acute; duration: 14 days; body weight.
Data set [12] relates to Bibionidae. The conditions noted are these: chronic/long-term; other.
Data set [13] has as its system Danio rerio. The conditions noted are these: acute; mortality.
Data set [14] relates to Homo sapiens. The conditions noted are these: clinical, oral.
The mark [15] stands for this setting: reproduction developmental, reproduction.
The mark [16] stands for this setting: chronic, duration: 1 years, Dog Other, clinical chemistry.

≈ marks a conversion by molar mass, not a printed value.

A word on the NOAEL: it is the highest tested level that showed no adverse finding. The LOAEL is the lowest tested level that showed an adverse finding.

In the case of `ClC1=C(Cl)[C@]2(Cl)[C@@H]3[C@@H](Cl)[C@H]4O[C@H]4[C@@H]3C1(Cl)C2(Cl)Cl` [Heptachlor epoxide B], the no-observed-adverse-effect level (NOAEL) amounted to 0.025 mg/kg-day in data set [1] (chronic, duration: 2 years, diet, M/F, Beagle, clinical chemistry); 1.5 mg/kg-day in data set [2] (subchronic, oral, diet, F); 0.002 mg/kg-day in data set [3] (chronic, duration: 25 weeks, oral, diet, M/F, development).

With `CC(C)C` [Isobutane], under setting [15], the NOAEC worked out at 7.12 mg/m3.

`CC(O)C(=O)O` (stereo not drawn) [Lactic acid] gave an LEL in [3] (subchronic, duration: 42 days, oral, diet, Chicken, no effects) of 30000 mg/kg-day.

`O=C(O)CC(O)C(=O)O` (stereo not drawn) [Malic acid]: the LEL was determined as 50000 mg/kg-day in data set [1] (chronic, duration: 104 weeks, M/F, Beagle, no effects); 12000 mg/kg-day in data set [4] (M/F); 23000 mg/kg-day in data set [2] (subchronic, oral, diet); 20000 mg/kg-day in data set [3] (short-term, duration: 21 days, oral, diet, food consumption).

In the case of `CBr` [Methyl bromide], the no observed adverse effect level (NOAEL) in data set [1] (chronic, duration: 1 years, Dog Other) is 0.27 mg/kg-day; in data set [1] (setting [16]) it was 0.13 mg/kg-day; in [7] (setting [15]), 90 mg/kg-day. In addition, the LC50 in [5] was 3.9 µg/mL. Also, the LD50 in [6] was determined as 73 mg/kg; in [7] (acute, oral) it was 104 mg/kg.

As to `NC(=O)c1ccc[n+]([C@@H]2O[C@H](CO)[C@@H](O)[C@H]2O)c1.[Cl-]` [Nicotinamide riboside chloride], the NOAEL in data set [1] (short-term, duration: 28 days, gavage, M/F, Beagle, clinical chemistry) was 300 mg/kg-day; in [7] (developmental, duration: 15 days, oral, gavage, F, Sprague-Dawley, development) it was 325 mg/kg-day; in data set [7] (subchronic, duration: 90 days, oral, gavage, M/F, Sprague-Dawley, body weight), 300 mg/kg-day.

Take `CC1=C[C@H]2O[C@@H]3[C@H](O)[C@@H](O)[C@](C)([C@@]2(CO)[C@H](O)C1=O)[C@]31CO1` [Nivalenol]: the lowest-observed-adverse-effect level (LOAEL) in data set [3] (repeat dose other, organ weight) turned out to be 0.36 mg/kg-day.

As for `C=C(/C=C\C[C@@H](O)[C@@H](O)[C@H](O)C/C=C/C=C\[C@@H](O)C[C@@H]1O[C@H](C[C@@H](O)[C@H](O)C[C@H]2O[C@H]([C@H](O)[C@H](O)CC[C@H](O)/C=C/[C@H](C)[C@@H](O)C[C@]3(O)O[C@H]([C@@H](O)[C@@H](O)CCCCCCC[C@@]45C[C@@H](C)C[C@@](C)(O4)[C@@H](CCCCCCC[C@@H](O)C[C@H](O)[C@@H](O)[C@@H](O)[C@H]4O[C@H](C[C@H](O)[C@H](O)/C(C)=C/[C@H](O)CC[C@H](O)C(=O)N/C=C/C(=O)NCCCO)[C@H](O)[C@@H](O)[C@@H]4O)O5)C[C@@H](O)[C@H]3O)C[C@@H](O)[C@@H]2O)[C@@H](O)[C@H](O)[C@H]1O)CC[C@H](O)[C@@H](O)[C@H](O)[C@H](C)C[C@H]1O[C@H](/C=C\[C@@H](O)[C@H](O)C[C@@H]2C[C@@H]3C[C@H](O2)[C@@H](CC[C@H]2O[C@H](CN)C[C@H]2O)O3)[C@@H](O)[C@H](O)[C@H]1O` [Ostreocin-D], the lowest-observed-adverse-effect level (LOAEL) in data set [8] turned out to be 0.2 mg/kg-day.

The compound `CCN(CC)c1nc(C)cc(OP(=S)(OC)OC)n1` [Pirimiphos-methyl] displayed an LC50 in [5] of 0.2 µg/mL (≈ 0.655 µM). Moreover, the no-observed-adverse-effect level (NOAEL) was determined as 15 mg/kg-day in data set [7] (acute, clinical signs); 0.4 mg/kg-day in [7] (chronic, duration: 2 years, clinical signs); 2.1 mg/kg-day in [7] (subchronic, duration: 13 weeks, clinical signs).

With `CC1=NNC(=O)N(/N=C/c2cccnc2)C1` [Pymetrozine], the no observed adverse effect level (NOAEL) in data set [1] (setting [16]) came to 0.57 mg/kg-day; in data set [1] (subchronic, duration: 90 days, diet, Beagle, organ weight) it was 3 mg/kg-day; in data set [9] (histopathology: nonneoplastic), 10 mg/kg-day.

As for `CCS(=O)(=O)c1cccnc1S(=O)(=O)NC(=O)Nc1nc(OC)cc(OC)n1` [Rimsulfuron], the NOAEL in data set [1] (subchronic, duration: 90 days, Dog Other, body weight) worked out at 9.63 mg/kg-day; in data set [9] (mortality) it was 170 mg/kg-day; in data set [7] (chronic, duration: 2 years, oral, body weight), 11.8 mg/kg-day; in data set [7] (reproduction developmental, body weight), 165 mg/kg-day. The LD50 in data set [10] (acute, unspecified, mortality) was greater than 2000 mg/kg-day; in data set [7] (acute, oral), greater than 5000 mg/kg-day. In data set [10] (reproductive, feed), the NOEC is 117 mg/kg-day.

As to `Cl.N/C(=N\N=C\c1ccc(Cl)cc1)N/N=C/c1ccc(Cl)cc1` [Robenidine hydrochloride], the NOEL in data set [1] (subchronic, duration: 90 days, Dog Other, organ weight) was 7.5 mg/kg-day. In addition, the results for the LC50 in [11] and in [13] were greater than 1000 mg/kg and 0.036 µg/mL, respectively. Besides, the NOEC in data set [12] turned out to be 50 mg/kg and the NOEC (repeat dose other, other) was greater than 1.8 mg/kg-day. The LEL in data set [4] was 120 mg/kg-day; in data set [2] (short-term, duration: 28 days), 60 mg/kg-day; in data set [9] (subchronic, duration: 48 days, oral, diet, no effects) it was 500 mg/kg-day; in data set [3] (subchronic, duration: 9 weeks, oral, diet, M/F, no effects), 225 mg/kg-day; in [3] (subchronic, duration: 35 days, oral, diet, M/F, Chicken, no effects), 82.5 mg/kg-day. Moreover, in data set [9] (duration: 84 days, oral, diet, New Zealand, reproduction), the no-observed-adverse-effect level (NOAEL) came out at 11 mg/kg-day.

In [14] (duration: 12 weeks, neurology), `CCCCCc1cc(O)c2c(c1)OC(C)(C)[C@@H]1CCC(C)=C[C@@H]21` [Tetrahydrocannabinol] gave an LEL of 2.5 mg/day. For the same compound, in data set [14] (capsule, other), the “LOAEL (mg/person-day)” value is 2.5.

In [4] (duration: 21 days, food consumption), `CC1=C[C@H]2O[C@@H]3[C@H](O)C[C@](C)([C@@]2(CO)[C@H](O)C1=O)[C@@]31CO1` [Vomitoxin] gave an LOEL of 0.35 mg/kg-day.

The values are drawn from EPA's ToxValDB 9.5.
